Test results published in patent publication US12583856B2, “Inhibitors of protein kinase A” (Blueprint Medicines Corporation, priority 2021, dated 2026).

Experiments:
[1] = molecular target: T1, PRKACA-DNAJB1 (Homo sapiens, UniProt P17612); experiment: PRKACA-DNAJB1 enzyme assay (EZ Reader 2 electrophoretic mobility shift); format: biochemical; conditions: read-out: Enz PRKACA-DNAJB1 IC50
T1 construct: DNAJB1 (fusion partner, P25685); the other entry of the earlier key: DNAJB1 (P25685, DnaJ homolog subfamily B member 1)
Protocol: (§1) A Perkin Elmer electrophoretic mobility shift platform (the EZ Reader 2) was used to assess the activity of test compounds against a kinase of interest. Fluorescently labeled substrate peptide was incubated in the presence of kinase, ATP, and the test compound, so that a portion of the peptide was phosphorylated by the enzyme. At the end of the reaction, the mix of phosphorylated (product) and non-phosphorylated (substrate) peptide containing solutions was passed through the microfluidic system of the Perkin Elmer EZ Reader 2 under an applied potential difference. The presence of the phosphate group on the product peptide provided a difference in mass and charge between those of the substrate peptide, resulting in a separation of the substrate and product pools in the sample. As the stopped solutions passed under the instrument's LED light the phosphorylated and un-phosphorylated fluorophore bound peptides were detected and resolved as separate peaks. The ratio between these peaks therefore reflected the test compound's impact on the kinase at that concentration in that well under those conditions.

[2] = molecular target: T2, PRKACA (Homo sapiens, UniProt P17612); experiment: PRKACA assay at Km (EZ Reader 2 electrophoretic mobility shift); format: biochemical; conditions: 5 μM ATP (Km), 1 μM Kemptide, 90 minutes at 25 C; read-out: Enz PRKACA IC50
T2 construct: purchased Millipore 539482
Protocol: as §1
PRKACA assay at Km: In each well of a 384-well plate, 0.007 ng/ul (0.18 nM) of PRKACA enzyme (Millipore: 539482) was incubated in a total of 12.5 μl of buffer (100 mM HEPES pH 7.5, 0.015% Brij 35, 10 mM MgCl2, 1 mM DTT) with 1 μM Kemptide peptide substrate (5-FAM-LRRASLG) (Anaspec 29933) and 5 μM ATP at 25 C for 90 minutes in the presence or absence of a dosed concentration series of test compounds (1% DMSO final concentration). The reaction was stopped by the addition of 80 μl of Stop buffer (100 mM HEPES pH 7.5, 0.015% Brij 35, 35 mM EDTA and 0.2% of Coating Reagent 3 (Perkin Elmer)). The plate was then read on the EZ Reader 2 (protocol settings: −2.0 psi, upstream voltage −700, downstream voltage −2700, post sample sip 60 seconds). Data was normalized to 0% and 100% inhibition controls and the IC50 calculated using a 4-parameter fit using GraphPad Prism.

[3] = tested on: PKA (phosphorylation of VASP on Serine 157); experiment: Cellular potency assay: P-VASP(157) HTRF in Forskolin-stimulated Huh7 cells; format: cell-based; conditions: Homo sapiens, Huh-7, 4 hours compound, 5 μM Forskolin 30 minutes, read-out: Phos VASP(S157) IC50
Description: PKA directly phosphorylate VASP on Serine 157. Phosphorylation of VASP on Serine 157. P-VASP(157) was therefore used as a readout of PKA cellular activity. P-VASP(157) was detected with a HTRF assay, which is based on a TR-FRET sandwich immunoassay-based format comprising two specific anti-VASP antibodies following the manufactors protocol (Cisbio, Catalog No. 63ADK066PEH). PKA was activated in the assay by the addition of Forskolin (Sigma-Aldrich, Catalog No. F3917).
Dose response in Forskolin-stimulated human Huh7 cells was measured as follows. Briefly, Huh7 cells were plated at a density of 2×10^4 cells per well in a 384-well opti-well cell culture plate in 15 μl of serum- and phenol-free Dulbecco's Modified Eagle Medium (DMEM, Gibco Catalog No. 21063-029), and incubated for over night at 37° C., 5% CO2. The next day, 3 μl of a dosed concentration series of test compound (0.24%) DMSO final concentration) was added to the wells, and the cells were incubated for an additional 4 hours at 37° C., 5% CO2. 2 μl of Forskolin was added at a final concentration of 5 μM and the plates were incubated for 30 minutes at 37° C., 5% CO2. 5 μl of lysis buffer containing 1% HALT protease cocktail inhibitors (ThermoFisher, Catalog No. 78430), was added to the cells and the mixture was incubated under gentle shaking for 30 min at room temperature. 10 μl of this lysate was transferred to a 384-well proxi plate and 2.5 μL of the premixed antibody solution was added. An antibody solution was prepared by combining phopho-VASP cryptate antibody and phospho-VASP d2 antibody, at twenty-fold dilution into a buffer solution following the manufactors' protocol. The lysate and antibody mixture was incubated for either 3 h at room temperature or overnight at 4° C. The fluorescence emission at two different wavelengths (665 nm and 620 nm) was read on an EnVision instrument.

Row | SMILES | IC50 [1] [nM] | IC50 [2] [nM] | IC50 [3] [nM]
1 | O=C(N[C@@H]1c2ccccc2C[C@@H]1CO)c1ccc(-c2ccnc3[nH]ccc23)cc1 (single isomer, unassigned) [Compound 108] | ≤ 1 | ≤ 1 | < 50
2 | O=C(N[C@H]1C[C@@H](O)c2cccc(F)c21)c1ccc(-c2ccnc3[nH]ccc23)nc1 (single isomer, unassigned) [Compound 119] | 1.01 to 5 | ≤ 1 | > 100
3 | O=C(N[C@H]1CCc2cc(C(F)F)ccc21)c1ccc(-c2ccnc3[nH]ccc23)cc1 (single isomer, unassigned) [Compound 125] | ≤ 1 | ≤ 1 | < 50
4 | C[C@H]1Oc2cccc(F)c2[C@@H](NC(=O)c2ccc(-c3ccnc4[nH]ccc34)nc2)[C@H]1O (single isomer, unassigned) [Compound 136] | ≤ 1 | ≤ 1 | 0.01 to 100
5 | Cc1c[nH]c2nccc(-c3ccc(C(=O)N[C@@H]4c5c(F)cc(C(F)F)cc5OCC4O)cn3)c12 (single isomer, unassigned) [Compound 171] | ≤ 1 | ≤ 1 | < 50
6 | Cc1c[nH]c2nccc(-c3ccc(C(=O)N[C@@H]4c5c(F)cc(C(F)F)cc5OCC4O)cn3)c12 (single isomer, unassigned) [Compound 172] | ≤ 1 | ≤ 1 | < 50
7 | N[C@@H]1Cc2ccccc2[C@H]1NC(=O)c1ccc(-c2ccnc3[nH]ccc23)cc1 [Compound 100, N-[(1R,2R)-2-Amino-2,3-dihydro-1H-inden-1-yl]-4-{1H-pyrrolo[2,3-b]pyridin-4-yl}benzamide] | ≤ 1 | ≤ 1 | < 50
8 | O=C(N[C@@H]1c2ccccc2C[C@@H]1O)c1ccc(-c2ccnc3[nH]ccc23)cc1 [Compound 101, N-[(1R,2S)-2-Hydroxy-2,3-dihydro-1H-inden-1-yl]-4-{1H-pyrrolo[2,3-b]pyridin-4-yl}benzamide] | ≤ 1 | ≤ 1 | < 50
9 | O=C(N[C@@H]1c2ccccc2C[C@H]1O)c1ccc(-c2ccnc3[nH]ccc23)cc1 [Compound 102] | ≤ 1 | ≤ 1 | 0.01 to 100
10 | O=C(N[C@H]1CCOc2ccccc21)c1ccc(-c2ccnc3[nH]ccc23)cc1 [Compound 103] | ≤ 1 | ≤ 1 | < 50
11 | O=C(N[C@@H]1c2ccccc2C[C@H]1F)c1ccc(-c2ccnc3[nH]ccc23)cc1 [Compound 104, N-((1R,2R)-2-Fluoro-2,3-dihydro-1H-inden-1-yl)-4-(1H-pyrrolo[2,3-b]pyridin-4-yl)benzamide] | ≤ 1 | ≤ 1 | 0.01 to 100
12 | Cc1c[nH]c2nccc(-c3ccc(C(=O)N[C@@H]4c5ccccc5C[C@H]4O)cc3)c12 [Compound 107, N-[(1R,2R)-2-Hydroxy-2,3-dihydro-1H-inden-1-yl]-4-{3-methyl-1H-pyrrolo[2,3-b]pyridin-4-yl}benzamide] | ≤ 1 | ≤ 1 | < 50
13 | C[C@@H]1C[C@H](NC(=O)c2ccc(-c3ccnc4[nH]ccc34)cc2)c2ccccc2O1 [Compound 109] | ≤ 1 | ≤ 1 | < 50
14 | O=C(N[C@@H]1c2ccccc2OC[C@@H]1O)c1ccc(-c2ccnc3[nH]ccc23)cc1 [Compound 110, N-[(3R,4R)-3-Hydroxy-3,4-dihydro-2H-1-benzopyran-4-yl]-4-{1H-pyrrolo[2,3-b]pyridin-4-yl}benzamide] | ≤ 1 | ≤ 1 | < 50
15 | O=C(N[C@@H]1c2ccccc2C[C@H]1O)c1ccc(-c2ccnc3[nH]cc(F)c23)cc1 [Compound 111] | ≤ 1 | ≤ 1 | < 50
16 | O=C(N[C@@H]1c2ccccc2C[C@@H]1O)c1ccc(-c2ccnc3[nH]cc(F)c23)cc1 [Compound 112, 4-(3-Fluoro-1H-pyrrolo[2,3-b]pyridin-4-yl)-N-((1R,2S)-2-hydroxy-2,3-dihydro-1H-inden-1-yl)benzamide] | ≤ 1 | ≤ 1 | 0.01 to 100

Row | SMILES | IC50 [1] [nM] | IC50 [2] [nM] | IC50 [3] [nM]
17 | O=C(N[C@H]1CCOc2cc(F)ccc21)c1ccc(-c2ccnc3[nH]ccc23)cc1 [Compound 113] | 1.01 to 5 | ≤ 1 | 0.01 to 100
18 | CO[C@@H]1CCN([C@@H]2Cc3ccccc3[C@H]2NC(=O)c2ccc(-c3ccnc4[nH]ccc34)nc2)C1 [Compound 163] |  | ≤ 1 | 0.01 to 100
19 | O=C(N[C@@H]1c2c(F)cc(C(F)F)cc2OC[C@@H]1O)c1ccc(-c2ccnc3[nH]ccc23)nc1 [Compound 164] |  | ≤ 1 | < 50
20 | Cc1c[nH]c2nccc(-c3ccc(C(=O)N[C@@H]4c5c(F)cccc5C[C@H]4N4CC(C)C4)cn3)c12 [Compound 166] |  | ≤ 1 | 0.01 to 100
21 | O=C(N[C@@H]1c2c(Cl)cccc2C[C@H]1N1CCCC1)c1ccc(-c2ccnc3[nH]ccc23)nc1 [Compound 168] |  | ≤ 1 | < 50
22 | Cc1c[nH]c2nccc(-c3ccc(C(=O)N[C@@H]4c5c(Cl)cccc5C[C@H]4N4CCCC4)cn3)c12 [Compound 174] |  | ≤ 1 | < 50
23 | O=C(N[C@@H]1c2c(ccc(F)c2Cl)C[C@H]1N1CCCC1)c1ccc(-c2ccnc3[nH]ccc23)nc1 [Compound 177] |  | ≤ 1 | < 50
24 | O=C(N[C@@H]1c2c(Cl)cccc2C[C@H]1N1CC[C@H](F)C1)c1ccc(-c2ccnc3[nH]ccc23)nc1 [Compound 178] |  | ≤ 1 | < 50
25 | O=C(N[C@@H]1c2c(ccc(F)c2F)C[C@H]1N1CCCC1)c1ccc(-c2ccnc3[nH]cc(F)c23)nc1 [Compound 179] |  | ≤ 1 | < 50
26 | Cc1c[nH]c2nccc(-c3ccc(C(=O)N[C@@H]4c5c(ccc(F)c5Cl)C[C@H]4N4CCCC4)cn3)c12 [Compound 181] |  | ≤ 1 | < 50
27 | Cc1c[nH]c2nccc(-c3ccc(C(=O)N[C@@H]4c5c(Cl)cccc5C[C@H]4N4CC[C@H](F)C4)cn3)c12 [Compound 182] |  | ≤ 1 | 0.01 to 100
28 | O=C(N[C@@H]1c2ccc(C(F)F)cc2C[C@H]1N1CC[C@H](F)C1)c1ccc(-c2ccnc3[nH]ccc23)nc1 [Compound 183] |  | 1.01 to 5 | 0.01 to 100
29 | O=C(N[C@@H]1c2c(Cl)cccc2C[C@H]1N1C[C@@H](O)[C@@H](F)C1)c1ccc(-c2ccnc3[nH]ccc23)nc1 [Compound 187] |  | 1.01 to 5 | > 100
30 | CN(C)C(=O)[C@H]1N([C@@H]2Cc3cccc(Cl)c3[C@H]2NC(=O)c2ccc(-c3ccnc4[nH]ccc34)nc2)CC1(C)C [Compound 192, N-[(1R,2R)-7-Chloro-2-[(2S)-2-(dimethylcarbamoyl)-3,3-dimethylazetidin-1-yl]-2,3-dihydro-1H-inden-1-yl]-6-{1H-pyrrolo[2,3-b]pyridin-4-yl}pyridine-3-carboxamide] |  | ≤ 1 | < 50
31 | CN(C)C(=O)[C@H]1N([C@@H]2Cc3cccc(Cl)c3[C@H]2NC(=O)c2ccc(-c3ccnc4[nH]ccc34)cn2)CC1(C)C [Compound 193] |  | ≤ 1 | < 50
